The subject of data set [1] is enteric hemorrhage of each rat. The data set can be described thus: Test Example 1: inhibition of enteric hemorrhage induced by intravenous lipopolysaccharide (E. coli) in rats. In kind it is in vivo, SD male rats. As to conditions: ip, 30 min before LPS 10 mg/kg i.v., 1 h after LPS, read-out: Inhibition rate; for inhibition in vivo at 25 mg/kg: 25 mg/kg i.p.; for inhibition in vivo at 12.5 mg/kg: 12.5 mg/kg i.p.; for inhibition in vivo at 50 mg/kg: 50 mg/kg i.p. On the procedure:
A drug having a test compound dissolved in the form of its Na^+ salt or Cl^- salt in saline or suspended in saline containing 0.5% by weight of carboxymethyl cellulose (manufactured by Nakalai Tesque K. K., hereinafter referred to simply as CMC), was intraperitonially injected to SD male rats of seven weeks old. […] One hour after the injection of the lipopolysaccharide, enteric hemorrhage of each rat was inspected, and the degree of hemorrhage was evaluated by the following ratings:
(§1) 2: Slight subepithelial congestion
(§2) 4: Subepithelial congestion over a wide range and slight submucous congestion
6: Submucous congestion over a wide range, flow out of blood from submucous tissues and necrosis
For the control, the test was conducted in the same manner except that no test compound was added.
The inhibition rate was obtained by the following formula.
(§3) Inhibition rate (%)=(A-B)/A×100
(§4) B: rating of a rat administered with a test compound

The nature of data set [2]: Test Example 2: Acute Toxicity. Conditions: mouse, in vivo, ip, DDY male mice, five mice per group, read-out: 50% lethal dose LD50. Here is the method:
Using DDY male mice of five weeks old, each group consisted of five mice. A test compound was suspended in saline containing 0.5% by weight of CMC and intraperitonially injected at a dose of 0.1 ml/10 g. 24 hours after the injection, survival or death was observed, and the number of death/the number of tested animals was obtained, and the 50% lethal dose LD50 was estimated, whereby LD50 of each of Compound Nos. 4, 9, 10, 15, 21, 25, 30, 33, 37, 44, 47, 58, 60 and 67 was at least 100 mg/kg.

Another data set deals with DDY male mice. The data set can be described thus: Test Example 4: survival of mice after intravenous platelet-activating factor (PAF). Type of data set: in vivo. Conditions: 100 mg/kg i.p. 1 h before PAF (10 μg/ml, 15 ml/kg i.v.); 1 h after PAF; control 0% (Nos. 21, 71, 78) or 14% (Nos. 22, 47). Here is the method: A drug having a test compound dissolved in the form of its Na^+ salt or or Cl^- salt in saline or suspended in saline containing 0.5% by weight of CMC, was intraperitonially injected to DDY male mice of five weeks old so that the dose would be 100 mg/kg. One hour after the injection of the drug, a solution (containing 1% by weight of dimethylsulfoxide) having a platelet-activating factor (PAF) dissolved in saline to a concentration of 10 μg/ml, was intravenously injected into the tail vein of each mouse in an amount of 15 ml/kg.
One hour after the injection of PAF, survival or death of each mouse was observed, and the survival rate was obtained by the following formula, whereby with Compound Nos. 21, 47, 71 and 78, the survival rate was 100%, and with Compound No. 22, the survival rate was 80%.
Further, for the control, the test was conducted in the same manner except that no test compound was added, whereby with each control corresponding to the test group for each of Compound Nos. 21, 71 and 78, the survival rate was 0%, and in the case of Compound Nos. 22 and 47, the survival rate of the control was 14%.
(§5) Survival rate (%)=(number of survived animals/number of tested

Data set [3] deals with enteric hemorrhage of each rat. The data set can be described thus: Test Example 5: inhibition of enteric hemorrhage induced by intravenous PAF in rats. In kind it is in vivo, SD male rats. Conditions: 12.5 mg/kg i.p. 30 min before PAF (10 μg/ml, 1 ml/kg i.v.); 1 h after PAF. Here is the method: A drug having a test compound dissolved in the form of its Na^+ salt or or Cl^- salt in saline or suspended in saline containing 0.5% by weight of CMC, was intraperitonially injected to SD male rats of seven weeks old so that the dose of the test compound would be 12.5 mg/kg. 30 minutes after the injection of the drug, a solution (containing 1% by weight of dimethylsulfoxide) having PAF dissolved in saline to a concentration of 10 μg/ml, was intravenously injected into the tail vein of each rat in an amount of 1 ml/kg.
One hour after the injection of PAF, enteric hemorrhage of each rat was inspected, and the degree of hemorrhage was evaluated by the following ratings:
as §1, §2
6: Submucous congestion over a wide range, flow out of blood from the submucous tissues and necrosis
as §3, §4

Another data set relates to SD male rats. In words: Test Example 3: survival of rats after intravenous lipopolysaccharide (E. coli). Type of data set: in vivo. Conditions: 50 mg/kg i.p. 30 min before and again 3 h after LPS 10 mg/kg i.v.; 48 h; control 0%. Here is the method:
A drug having a test compound suspended in saline containing 0.5% by weight of CMC, was intraperitonially administered to SD male rats of seven weeks old so that the dose would be 50 mg/kg. 30 minutes after the injection of the drug, lipopolysaccharide derived from E. coli (manufactured by Difco Company, Product No. 0127:B8) was intravenously injected into the tail vein of each rat so that the dose would be 10 mg/kg. Three hours after the injection of the lipopolysaccharide, the drug was again intraperitonially administered in the same amount.
as §5

In the case of `Cc1c(NC(=O)c2ccncc2)cnn(C(C)(C)C)c1=O` [Compound No. 1, 2-tert-butyl-4-methyl-5-(4-pyridylcarbonylamino)pyridazin-3-(2H)-one], in data set [1], the inhibition in vivo at 25 mg/kg is 96%.

As for `CC(C)(C)n1ncc(NCc2ccncc2)c(C=NCc2ccncc2)c1=O` [Compound No. 2, 2-tert-butyl-5-(4-pyridylmethylamino)-4-(4-pyridylmethyliminomethylidenyl)pyridazin-3-(2H)-one], in data set [1], the inhibition in vivo at 12.5 mg/kg was determined as 75% and the inhibition in vivo at 25 mg/kg worked out at 98%.

Consider `CSc1c(NCc2ccncc2)cnn(C(C)(C)C)c1=O` [Compound No. 7, 2-tert-butyl-4-methylthio-5-(4-pyridylmethylamino)pyridazin-3-(2H)-one], for which, in data set [1], the inhibition in vivo at 12.5 mg/kg was determined as 78% and the inhibition in vivo at 50 mg/kg was found to be 100%.

Consider `C[S+]([O-])c1c(NCc2ccncc2)cnn(C(C)(C)C)c1=O` (stereo not shown) [Compound No. 8, 2-tert-butyl-4-methanesulfinyl-5-(4-pyridylmethylamino)pyridazin-3-(2H)-one], for which the inhibition in vivo at 12.5 mg/kg in data set [1] came out at 72%.

In general, LD50 refers to the dose at which mortality reaches 50%. `CC(C)(C)n1ncc(NCc2ccncc2)c(S(C)(=O)=O)c1=O` [Compound No. 9, 2-tert-butyl-4-methanesulfonyl-5-(4-pyridylmethylamino)pyridazin-3-(2H)-one]: the LD50 at 24 h in data set [2] was at least 100 mg/kg. The inhibition in vivo at 50 mg/kg in data set [1] is 43%.

In the case of `CC(C)(C)n1ncc(NCc2ccncc2)c(N)c1=O` [Compound No. 10, 4-amino-2-tert-butyl-5-(4-pyridylmethylamino)pyridazin-3-(2H)-one], the LD50 at 24 h in data set [2] is at least 100 mg/kg. For the same molecule, in data set [1], the inhibition in vivo at 12.5 mg/kg is 50% and the inhibition in vivo at 50 mg/kg turned out to be 94%.

In the case of `CON=Cc1c(NCc2ccncc2)cnn(C(C)(C)C)c1=O` [Compound No. 16, 2-tert-butyl-5-(4-pyridylmethylamino)-4-methoxyiminomethylidenylpyridazin-3-(2H)-one], the inhibition in vivo at 100 mg/kg in data set [1] (100 mg/kg i.p.) was 100%.

For the molecule `CC(C)(C)n1ncc(NCc2ccncc2)c(C#N)c1=O` [Compound No. 21, 2-tert-butyl-4-cyano-5-(4-pyridylmethylamino)pyridazin-3-(2H)-one], the LD50 at 24 h in data set [2] was at least 100 mg/kg. In addition, in data set [1], the inhibition in vivo at 12.5 mg/kg turned out to be 65%, the inhibition in vivo at 25 mg/kg was found to be 96% and the inhibition in vivo at 50 mg/kg was 100%. The molecule also yielded a Survival rate with DDY male mice of 100%.

For `COC(=O)c1c(NCc2ccncc2)cnn(C(C)(C)C)c1=O` [Compound No. 22, 2-tert-butyl-4-methoxycarbonyl-5-(4-pyridylmethylamino)pyridazin-3-(2H)-one], in data set [1], the inhibition in vivo at 12.5 mg/kg stood at 41% and the inhibition in vivo at 25 mg/kg turned out to be 100%. Further, the Survival rate with DDY male mice is reported as 80%.

As to `CC(C)(C)n1ncc(NCc2ccncc2)c(C=O)c1=O` [Compound No. 24, 2-tert-butyl-4-formyl-5-(4-pyridylmethylamino) pyridazin-3-(2H)-one], in data set [1], the inhibition in vivo at 50 mg/kg came out at 100%.

Take `CCC(=O)Nc1c(NCc2ccncc2)cnn(C(C)(C)C)c1=O` [Compound No. 28, 2-tert-butyl-4-propionylamide-5-(4-pyridylmethylamino)pyridazin-3-(2H)-one]: in data set [1], the inhibition in vivo at 12.5 mg/kg came to 42% and the inhibition in vivo at 50 mg/kg was determined as 83%.

As for `CC(C)(C)n1ncc(NCc2ccncc2)c(N(S(C)(=O)=O)S(C)(=O)=O)c1=O` [Compound No. 30, 2-tert-butyl-4-N,N-bis(methanesulfonyl)amino-5-(4-pyridylmethylamino)pyridazin-3-(2H)-one], the LD50 at 24 h in data set [2] is at least 100 mg/kg.

In the case of `CC1CCOC(c2c(NCc3ccncc3)cnn(C(C)(C)C)c2=O)O1` (stereo not shown) [Compound No. 44, 2-tert-butyl-4-(4-methyl-1,3-dioxan-2-yl)-5-(4-pyridylmethylamino)pyridazin-3-(2H)-one], the LD50 at 24 h in data set [2] is at least 100 mg/kg. Besides, the inhibition in vivo at 12.5 mg/kg in data set [1] was 77%.

In the case of `CCn1ncc(NCc2ccncc2)c(C#N)c1=O` [Compound No. 47, 4-cyano-2-ethyl-5-(4-pyridylmethylamino)pyridazin-3-(2H)-one], the LD50 at 24 h in data set [2] is at least 100 mg/kg. In data set [1], the inhibition in vivo at 12.5 mg/kg came out at 75%. For the same molecule, the Survival rate with DDY male mice came to 100%.

`CC(=O)N(C)c1c(NCc2ccncc2)cnn(C)c1=O` [Compound No. 69, 2-methyl-4-(N-methyl)acetylamino-5-(4-pyridylmethylamino)pyridazin-3-(2H)-one]: the inhibition in vivo at 12.5 mg/kg in data set [1] worked out at 78%. The Inhibition rate in data set [3] turned out to be 100%.

Consider `Cn1ncc(NCc2ccncc2)c(CO)c1=O` [Compound No. 70, 4-hydroxymethyl-2-methyl-5-(4-pyridylmethylamino)pyridazin-3-(2H)-one], for which the Survival rate in the data set with SD male rats stood at 50%. Further, in data set [1], the inhibition in vivo at 12.5 mg/kg is 72%.

Take `COCc1c(N(C)Cc2ccncc2)cnn(C)c1=O` [Compound No. 73, 4-methoxymethyl-2-methyl-5-(N-methyl-4-pyridylmethylamino)pyridazin-3-(2H)-one]: the Survival rate in the data set on SD male rats is on record as 75%. For the same molecule, the inhibition in vivo at 12.5 mg/kg in data set [1] stood at 76%. The molecule further came in with an Inhibition rate in data set [3] of 92%.

Consider `COCc1c(NCc2ccncc2)cnn(C)c1=O` [Compound No. 105, 4-methoxymethyl-2-methyl-5-(4-pyridylmethylamino)pyridazin-3-(2H)-one], for which, in data set [1], the inhibition in vivo at 12.5 mg/kg came out at 92%.

The values are drawn from patent US5763439A, “Pyridazinone derivatives or their salts, processes for their production, and anti-shock agents containing them” (Ishihara Sangyo Kaisha Ltd., priority 1993, dated 1998).
